Assay results reported in patent US10058549B2, “Imidazo[1,2-α]pyridine derivatives as modulators of the 5-HT2A serotonin receptor useful for the treatment of disorders related thereto” (Arena Pharmaceuticals, Inc., priority 2007, dated 2018).

Assays:
healthy adults = assay: Phase 1 trials, waking EEG; assay type: in vivo, human
normal volunteers = assay: Afternoon nap model of insomnia in normal volunteers; assay type: in vivo, human
diabetic rats = details: 19.8% deficit in diabetic rats; cited from earlier work
[1] = test system: DOI-induced hypolocomotion in rats; assay: Attenuation of DOI-induced hypolocomotion in rats; assay type: in vivo, rat; details: compound 1-10 mg/kg p.o., DOI 1 mg/kg s.c.
Experimental: In this example, compounds of the invention were tested for inverse agonist activity by determining whether these compounds could attenuate DOI-induced hypolocomotion in rats in a novel environment. DOI is a potent 5-HT2A/2C receptor agonist that crosses the blood-brain barrier. The standard protocol used is described briefly below.
Male Sprague-Dawley rats weighing between 200-350 g were used for all tests. Rats were housed three to four per cage.
(R)-DOI HCl (C11H16INO2.HCl) was obtained from Sigma-Aldrich and was dissolved in 0.9% saline. Compounds of the invention were synthesized at Arena Pharmaceuticals Inc., San Diego, Calif. and were dissolved in 100% PEG400. DOI was injected s.c. in a volume of 1 mL/kg, while compounds of the invention were administered p.o. in a volume of 1 mL/kg.
The “Motor Monitor” (Hamilton-Kinder, Poway, Calif.) was used for all activity measurement. This apparatus recorded rears using infrared photobeams. […]
In determining the effects of compounds of the invention on DOI-induced hypoactivity, animals were first injected with vehicle or the compound of the invention (1-10 mg/kg) in their home cages. […] Ten minutes after DOI administration, animals were placed into the activity apparatus and rearing activity was measured for 10 min.
Results (total rears over 10 min) were analyzed by t-test. […]

heatstroke = details: during heatstroke; cited from earlier work
JC virus = details: human glial cells; cited from earlier work
[2] = test system: inflammatory pain in rats; details: intrathecal or intraperitoneal administration; cited from earlier work
[3] = test system: thermal induced pain in rats; details: intraperitoneal administration; cited from earlier work
humans = details: lumbar disc herniation; cited from earlier work
[4] = test system: diabetic nephropathy patients; details: 24 months of treatment; cited from earlier work

With `COc1ccc(NC(=O)Nc2ccc(F)cc2F)cc1-c1c(Br)cnn1C` [APD125] the “effect on waking EEG” value (healthy adults) was “vigilance-lowering effects”, the “dose of maximal vigilance-lowering effects” value (healthy adults; waking EEG) was 40 to 80 mg and the “time of peak effects after dosing” value (healthy adults; waking EEG) was 2 to 4 h. For the same compound, the “microarousals, number of sleep stage shifts and number of awakenings after sleep onset” value (normal volunteers; human, in vivo) was “decreased”, the sleep onset latency (normal volunteers; human, in vivo) was “not decreased” and the “slow wave sleep and associated parameters” value (normal volunteers; primarily during the early part of sleep) was “increased slow wave sleep and associated parameters in a dose-dependent manner”.
In the case of `O=CN1CCC(C(=O)NCCN2CCC(=C3c4ccccc4C=Cc4ccccc43)CC2)CC1` [AT-1015], the “correction of sciatic motor conduction deficit” value (shortened to “correction”) (diabetic rats) is listed as 82.6-99.7%.
For `O=C(c1cccn2ccnc12)N1CCN(CCc2ccccc2F)CC1` [Compound 18, (4-(2-Fluorophenethyl)piperazin-1-yl)(imidazo[1,2-a]pyridin-8-yl)methanone], the “attenuation of DOI-induced hypolocomotion (total rears over 10 min)” value [1] was “attenuated DOI-induced hypolocomotion”.
With `O=C(c1cccn2ccnc12)N1CCN(CCc2ccc(Cl)cc2Cl)CC1` [Compound 19, (4-(2,4-Dichlorophenethyl)piperazin-1-yl)(imidazo[1,2-a]pyridin-8-yl)methanone] the “attenuation of DOI-induced hypolocomotion (total rears over 10 min)” value [1] was “attenuated DOI-induced hypolocomotion”.
For `O=C(c1ccc(F)cc1)C1CCN(CCn2c(=O)[nH]c3ccccc3c2=O)CC1` [ketanserin], the “protection against circulatory shocks, intracranial hypertension and cerebral ischemia” value (heatstroke) is listed as “protect against circulatory shocks, intracranial hypertension and cerebral ischemia” and the JC virus infection (JC virus) is listed as “inhibited”.
In the case of `Cc1nc2sccn2c(=O)c1CCN1CCC(=C(c2ccc(F)cc2)c2ccc(F)cc2)CC1` [ritanserin], the “correction” value (diabetic rats) is given as 82.6-99.7% and the JC virus infection (JC virus) is given as “inhibited”.
In the case of `COc1cccc(CCc2ccccc2OCC(CN(C)C)OC(=O)CCC(=O)O)c1` (stereo not drawn) [sarpogrelate], the “correction” value (diabetic rats) is listed as 82.6-99.7%, the “analgesic effect on inflammatory pain” value [2] is listed as “significant analgesic effect” and the “analgesic effect on thermal induced pain” value [3] is listed as “significant analgesic effect”. For the same compound, the “treatment of lower back pain, leg pain and numbness associated with sciatica” value (humans) was “effective treatment” and the “urinary albumin excretion level” value [4] was “significantly reduced”.
